Source: patent US9399626B2, “2-thiopyrimidinones” (Pfizer Inc., priority 2011, dated 2016)

Target: T1, MPO (purified from human polynuclear leukocytes) (Homo sapiens, UniProt P05164)
T1 construct: purified from human polynuclear leukocytes; purchased Calbiochem/EMD Biosciences; host or cells: human polynuclear leukocytes (natural source)
Experiment: MPO Amplex Red Activity Assay
Format: biochemical
Details: Table 1A, 2 μM H2O2, pH 7.4
Procedure, shortened: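 Human leukocyte MPO […] oxidises 30 μM Amplex Red with 2 μM H2O2 in 50 mM NaPi pH 7.4, 150 mM NaCl, 1 mM DTPA, 2% DMSO. Resorufin fluorescence (ex 530/em 580 nm) read every 20 s, minus catalase background. kobs from the first 600 s, corrected for auto-inactivation, fit versus [I] for kinact/KI.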

T1 sequence (P05164 279-745 limits assumed): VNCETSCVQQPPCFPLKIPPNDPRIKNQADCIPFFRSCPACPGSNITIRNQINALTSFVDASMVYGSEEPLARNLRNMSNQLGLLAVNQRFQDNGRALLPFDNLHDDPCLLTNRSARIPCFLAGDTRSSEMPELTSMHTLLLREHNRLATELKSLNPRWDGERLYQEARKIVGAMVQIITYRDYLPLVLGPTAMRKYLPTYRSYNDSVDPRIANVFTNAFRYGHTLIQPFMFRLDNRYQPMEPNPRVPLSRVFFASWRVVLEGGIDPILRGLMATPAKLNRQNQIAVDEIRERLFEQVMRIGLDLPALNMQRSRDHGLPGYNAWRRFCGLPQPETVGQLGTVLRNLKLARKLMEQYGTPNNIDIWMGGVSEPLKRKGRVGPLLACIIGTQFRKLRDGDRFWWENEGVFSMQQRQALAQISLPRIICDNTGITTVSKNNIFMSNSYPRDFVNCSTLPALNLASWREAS
T1 sequence (P05164 165-273 limits assumed): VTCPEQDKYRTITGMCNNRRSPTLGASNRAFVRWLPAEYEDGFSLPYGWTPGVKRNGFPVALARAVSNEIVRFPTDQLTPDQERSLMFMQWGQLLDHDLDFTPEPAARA

MPO kinact/Ki | Compound
3980 1/s per M | NC(=O)Cn1c(-c2cc(F)ccc2OCCO)cc(=O)[nH]c1=S [Example 412, 2-{6-[5-fluoro-2-(2-hydroxyethoxy)phenyl]-4-oxo-2-thioxo-3,4-dihydropyrimidin-1(2H)-yl}acetamide]
6560 1/s per M | O=c1cc(-c2ccc(F)cc2OCCO)n(CCO)c(=S)[nH]1 [Example 413, 6-[4-fluoro-2-(2-hydroxyethoxy)phenyl]-1-(2-hydroxyethyl)-2-thioxo-2,3-dihydropyrimidin-4(1H)-one]
1680 1/s per M | NC(=O)Cn1c(-c2ccc(F)cc2OCCO)cc(=O)[nH]c1=S [Example 414, 2-{6-[4-fluoro-2-(2-hydroxyethoxy)phenyl]-4-oxo-2-thioxo-3,4-dihydropyrimidin-1(2H)-yl}acetamide]
3910 1/s per M | NCCNC(=O)Cn1c(-c2ccc(F)cc2OCCO)cc(=O)[nH]c1=S [Example 415, N-(2-aminoethyl)-2-{6-[4-fluoro-2-(2-hydroxyethoxy)phenyl]-4-oxo-2-thioxo-3,4-dihydropyrimidin-1(2H)-yl}acetamide]
4480 1/s per M | COc1cccc(-c2cc(=O)[nH]c(=S)n2CC(N)=O)c1OC [Example 416, 2-[6-(2,3-dimethoxyphenyl)-4-oxo-2-thioxo-3,4-dihydropyrimidin-1(2H)-yl]acetamide]
9280 1/s per M | COc1cc(Cl)ccc1-c1cc(=O)[nH]c(=S)n1CC(N)=O [Example 417, 2-[6-(4-chloro-2-methoxyphenyl)-4-oxo-2-thioxo-3,4-dihydropyrimidin-1(2H)-yl]acetamide]
11500 1/s per M | COc1cc(C)ccc1-c1cc(=O)[nH]c(=S)n1CC(N)=O [Example 418, 2-[6-(2-methoxy-4-methylphenyl)-4-oxo-2-thioxo-3,4-dihydropyrimidin-1(2H)-yl]acetamide]
1200 1/s per M | COc1ccc(F)cc1-c1cc(=O)[nH]c(=S)n1CCONC(=N)N [Example 419, 1-{2-[6-(5-fluoro-2-methoxyphenyl)-4-oxo-2-thioxo-3,4-dihydropyrimidin-1(2H)-yl]ethoxy}guanidine]
5210 1/s per M | COc1ccc(-c2cc(=O)[nH]c(=S)n2CC(N)=O)c(OCCO)c1 [Example 420, 2-{6-[2-(2-hydroxyethoxy)-4-methoxyphenyl]-4-oxo-2-thioxo-3,4-dihydropyrimidin-1(2H)-yl}acetamide]
4950 1/s per M | CC(=O)OCCOc1ccc(F)cc1-c1cc(=O)[nH]c(=S)n1CC(N)=O [Example 421, 2-{2-[3-(2-amino-2-oxoethyl)-6-oxo-2-thioxo-1,2,3,6-tetrahydropyrimidin-4-yl]-4-fluorophenoxy}ethyl acetate]
4460 1/s per M | COc1ccc(OCCO)cc1-c1cc(=O)[nH]c(=S)n1CC(N)=O [Example 422, 2-{6-[5-(2-hydroxyethoxy)-2-methoxyphenyl]-4-oxo-2-thioxo-3,4-dihydropyrimidin-1(2H)-yl}acetamide]
3290 1/s per M | COc1cc(OCC(N)=O)ccc1-c1cc(=O)[nH]c(=S)n1CCN [Example 423, 2-{4-[3-(2-aminoethyl)-6-oxo-2-thioxo-1,2,3,6-tetrahydropyrimidin-4-yl]-3-methoxyphenoxy}acetamide]
6870 1/s per M | NCCNC(=O)Cn1c(-c2cc(Cl)ccc2OCCO)cc(=O)[nH]c1=S [Example 424, N-(2-aminoethyl)-2-{6-[5-chloro-2-(2-hydroxyethoxy)phenyl]-4-oxo-2-thioxo-3,4-dihydropyrimidin-1(2H)-yl}acetamide]
13400 1/s per M | O=c1cc(-c2cc(Cl)ccc2OCCO)n(CCO)c(=S)[nH]1 [Example 425, 6-[5-chloro-2-(2-hydroxyethoxy)phenyl]-1-(2-hydroxyethyl)-2-thioxo-2,3-dihydropyrimidin-4(1H)-one]
4410 1/s per M | NC(=O)Cn1c(-c2cc(Cl)ccc2OCCO)cc(=O)[nH]c1=S [Example 426, 2-{6-[5-chloro-2-(2-hydroxyethoxy)phenyl]-4-oxo-2-thioxo-3,4-dihydropyrimidin-1(2H)-yl}acetamide]
5360 1/s per M | NCCn1c(-c2cc(Cl)ccc2OCCO)cc(=O)[nH]c1=S [Example 427, 1-(2-aminoethyl)-6-[5-chloro-2-(2-hydroxyethoxy)phenyl]-2-thioxo-2,3-dihydropyrimidin-4(1H)-one]
5890 1/s per M | NCCNC(=O)Cn1c(-c2ccccc2OCCO)cc(=O)[nH]c1=S [Example 428, N-(2-aminoethyl)-2-{6-[2-(2-hydroxyethoxy)phenyl]-4-oxo-2-thioxo-3,4-dihydropyrimidin-1(2H)-yl}acetamide]

MPO kinact/Ki | Compound
6620 1/s per M | COc1ccc(-c2cc(=O)[nH]c(=S)n2CC(=O)NCC(C)(C)N)c(OC)c1 [Example 429, N-(2-amino-2-methylpropyl)-2-[6-(2,4-dimethoxyphenyl)-4-oxo-2-thioxo-3,4-dihydropyrimidin-1(2H)-yl]acetamide]
9440 1/s per M | COc1ccc(-c2cc(=O)[nH]c(=S)n2CC(=O)N[C@H]2C[C@@H](N)C2)c(OC)c1 [Example 430, N-(cis-3-aminocyclobutyl)-2-[6-(2,4-dimethoxyphenyl)-4-oxo-2-thioxo-3,4-dihydropyrimidin-1(2H)-yl]acetamide]
3440 1/s per M | COc1ccc(-c2cc(=O)[nH]c(=S)n2CC(=O)N2CC(N)C2)c(OC)c1 [Example 431, 1-[2-(3-aminoazetidin-1-yl)-2-oxoethyl]-6-(2,4-dimethoxyphenyl)-2-thioxo-2,3-dihydropyrimidin-4(1H)-one]
1410 1/s per M | COc1ccc(-c2cc(=O)[nH]c(=S)n2CC(=O)NC(C)(C)CN)c(OC)c1 [Example 432, N-(1-amino-2-methylpropan-2-yl)-2-[6-(2,4-dimethoxyphenyl)-4-oxo-2-thioxo-3,4-dihydropyrimidin-1(2H)-yl]acetamide]
3490 1/s per M | COc1ccc(-c2cc(=O)[nH]c(=S)n2CC(=O)N[C@H](C)[C@@H](C)N)c(OC)c1 [Example 433, N-[(2R,3R)-3-aminobutan-2-yl]-2-[6-(2,4-dimethoxyphenyl)-4-oxo-2-thioxo-3,4-dihydropyrimidin-1(2H)-yl]acetamide]
4070 1/s per M | CCNC(=O)Cn1c(-c2ccc(OC)cc2OC)cc(=O)[nH]c1=S [Example 434, 2-[6-(2,4-dimethoxyphenyl)-4-oxo-2-thioxo-3,4-dihydropyrimidin-1(2H)-yl]-N-ethylacetamide]
2420 1/s per M | CCCNC(=O)Cn1c(-c2ccc(OC)cc2OC)cc(=O)[nH]c1=S [Example 435, 2-[6-(2,4-dimethoxyphenyl)-4-oxo-2-thioxo-3,4-dihydropyrimidin-1(2H)-yl]-N-propylacetamide]
3710 1/s per M | COCCNC(=O)Cn1c(-c2ccc(OC)cc2OC)cc(=O)[nH]c1=S [Example 436, 2-[6-(2,4-dimethoxyphenyl)-4-oxo-2-thioxo-3,4-dihydropyrimidin-1(2H)-yl]-N-(2-methoxyethyl)acetamide]
3400 1/s per M | COc1ccc(-c2cc(=O)[nH]c(=S)n2CC(=O)N[C@H]2C[C@H](N)C2)c(OC)c1 [Example 437, N-(trans-3-aminocyclobutyl)-2-[6-(2,4-dimethoxyphenyl)-4-oxo-2-thioxo-3,4-dihydropyrimidin-1(2H)-yl]acetamide]
7550 1/s per M | COc1ccc(-c2cc(=O)[nH]c(=S)n2CC(=O)NC2CNC2)c(OC)c1 [Example 438, N-(azetidin-3-yl)-2-[6-(2,4-dimethoxyphenyl)-4-oxo-2-thioxo-3,4-dihydropyrimidin-1(2H)-yl]acetamide]
9200 1/s per M | COc1ccc(-c2cc(=O)[nH]c(=S)n2CC(=O)N[C@H]2CC[C@@H]2N)c(OC)c1 [Example 439, N-[(1S,2S)-2-aminocyclobutyl]-2-[6-(2,4-dimethoxyphenyl)-4-oxo-2-thioxo-3,4-dihydropyrimidin-1(2H)-yl]acetamide]
3310 1/s per M | COc1ccc(-c2cc(=O)[nH]c(=S)n2CCN(C)C(=O)CN)c(OC)c1 [Example 440, N-{2-[6-(2,4-dimethoxyphenyl)-4-oxo-2-thioxo-3,4-dihydropyrimidin-1(2H)-yl]ethyl}-N-methylglycinamide]
3260 1/s per M | COc1ccc(-c2cc(=O)[nH]c(=S)n2CC(=O)N[C@@H]2CC[C@H]2N)c(OC)c1 [Example 441, N-[(1R,2R)-2-aminocyclobutyl]-2-[6-(2,4-dimethoxyphenyl)-4-oxo-2-thioxo-3,4-dihydropyrimidin-1(2H)-yl]acetamide]
12300 1/s per M | COc1ccc(-c2cc(=O)[nH]c(=S)n2CC(=O)NCCCN)c(OC)c1 [Example 442, N-(3-aminopropyl)-2-[6-(2,4-dimethoxyphenyl)-4-oxo-2-thioxo-3,4-dihydropyrimidin-1(2H)-yl]acetamide]
7330 1/s per M | COc1ccc(-c2cc(=O)[nH]c(=S)n2CC(=O)NCC(F)(F)CN)c(OC)c1 [Example 443, N-(3-amino-2,2-difluoropropyl)-2-[6-(2,4-dimethoxyphenyl)-4-oxo-2-thioxo-3,4-dihydropyrimidin-1(2H)-yl]acetamide]
17400 1/s per M | COc1ccc(-c2cc(=O)[nH]c(=S)n2CCC(=O)NCCN)c(OC)c1 [Example 444, N-(2-aminoethyl)-3-[6-(2,4-dimethoxyphenyl)-4-oxo-2-thioxo-3,4-dihydropyrimidin-1(2H)-yl]propanamide]
7350 1/s per M | COc1ccc(-c2cc(=O)[nH]c(=S)n2CC(=O)NCCNCC2CC2)c(OC)c1 [Example 445, N-{2-[(cyclopropylmethyl)amino]ethyl}-2-[6-(2,4-dimethoxyphenyl)-4-oxo-2-thioxo-3,4-dihydropyrimidin-1(2H)-yl]acetamide]
